# Data from patent US12319655B2, “RAF kinase inhibitors and methods of use thereof” (Deciphera Pharmaceuticals, LLC, priority 2021, dated 2025).
# What was measured:
# [1] = target: B-Raf (V600E) (SEQ. ID NO: 4) kinase (Homo sapiens (Human), UniProt P15056, V600E); assay: Biochemical Assay for B-Raf (V600E) (2); conditions: Table J, BRAF V600E, biochemical assay (2); read-out: BRAF VE (2)
# Procedure, shortened: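 Coupled pyruvate kinase/lactate dehydrogenase assay tracking NADH oxidation (A340) with 0.5 nM B-Raf V600E, 100 nM MEK substrate, 1 mM ATP, pH 7.5 Tris/MgCl2 buffer, 1% DMSO. Read hourly 4 h at 30 °C; rate over 3–4 h gives percent inhibition, IC50 from four-parameter fit.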
# [2] = test system: WM3629 cells; assay: WM3629 Cell Proliferation Assay (2); type: cell-based
# Description: WM3629 Cell Proliferation Assay (2)
# WM3629 cells (#WM3629-01-0001) are obtained from Rockland Immunochemicals Inc (Gilbertsville, PA). Briefly, cells were grown in MCDB 153 medium (Sigma, #M7403, St. Louis, MO) supplemented with 20% Leibovitz's L-15 (ThermoFisher #11415-064, Waltham, MA), 2% heat inactivated fetal bovine serum (ThermoFisher, #A3840001, Waltham, MA), 5 μg/mL Insulin (Bovine Pancreas) (Sigma, #I0516, St. Louis, MO), 1.68 mM Calcium Chloride (Sigma, #C-34006, St. Louis, MO) and 1% Penicillin/Streptomycin/L-Glutamine (ThermoFisher #10378016, Waltham, MA) at 37° C., 5% CO2, and 95% humidity. Cells are expanded until reaching 70-95% confluency at which point they are sub-cultured or harvested for assay use. Using the Beckman Coulter Echo 650, a serial dilution of test compound is dispensed into a 384-well black clear bottom plate in triplicate. One thousand one hundred twenty-five cells are added per well in 50 μL complete growth medium in the 384-well plate. Plates are incubated for 67-72 hours at 37° C., 5% CO2, and 95% humidity. At the end of the incubation, 10 μL of a 440 μM solution of resazurin (Sigma, #199303, St. Louis, MO) in PBS is added to each well of the plate and plates are incubated for an additional 3-6 hours at 37° C., 5% CO2, and 95% humidity. Plates are read on a Synergy2 or equivalent reader (Biotek, Winooski VT) using an excitation of 540 nm and an emission of 600 nm. Data is analyzed using Prism software (GraphPad, San Diego, CA) to calculate IC50 values.
# [3] = test system: Miapaca-2 cells; assay: MiaPaca-2 Cell Proliferation Assay (2); type: cell-based; conditions: Homo sapiens, MIA PaCa-2, single agent
# Description: MiaPaca-2 Cell Proliferation Assay (2)
# (§1) Miapaca-2 cells (catalog #CRL-1420) are obtained from the American Type Culture Collect (ATTC, Manassas, VA). Briefly, cells were grown in DMEM supplemented with 10% characterized fetal bovine serum (Invitrogen, Carlsbad, CA), 2.5% New Zealand sourced horse serum and 1% Penicillin/Streptomycin/L-Glutamine at 37° C., 5% CO2, and 95% humidity. Cells are expanded until reaching 70-95% confluency at which point they are sub-cultured or harvested for assay use. A serial dilution of test compound is dispensed into a 384-well black clear bottom plate in triplicate. Seven hundred fifty cells are added per well in 50 μL complete growth medium in the 384-well plate. Plates are incubated for 67-72 h at 37° C., 5% CO2, and 95% humidity. At the end of the incubation, 10 μL of a 440 μM solution of resazurin (Sigma, St. Louis, MO) in PBS is added to each well of the plate and plates are incubated for an additional 5-6 h at 37° C., 5% CO2, and 95% humidity. Plates are read on a Synergy2 or equivalent reader (Biotek, Winooski VT) using an excitation of 540 nm and an emission of 600 nm. Data is analyzed using Prism software (GraphPad, San Diego, CA) to calculate IC50 values.
# [4] = test system: H2405 cells; assay: H2405 Cell Proliferation Assay (2); type: cell-based; conditions: Homo sapiens, NCI-H2405
# Description: H2405 Cell Proliferation Assay (2)
# as §1, with “H2405” for “Miapaca-2”, “#CRL-5994)” for “#CRL-1420)”, “RPMI 1640” for “DMEM”, “5%” for “10%”, “CA)” for “CA), 2.5% New Zealand sourced horse serum”, “values” for “values.”
# Chain of B-Raf (V600E) (SEQ. ID NO: 4) kinase (P15056 416-766 V600E): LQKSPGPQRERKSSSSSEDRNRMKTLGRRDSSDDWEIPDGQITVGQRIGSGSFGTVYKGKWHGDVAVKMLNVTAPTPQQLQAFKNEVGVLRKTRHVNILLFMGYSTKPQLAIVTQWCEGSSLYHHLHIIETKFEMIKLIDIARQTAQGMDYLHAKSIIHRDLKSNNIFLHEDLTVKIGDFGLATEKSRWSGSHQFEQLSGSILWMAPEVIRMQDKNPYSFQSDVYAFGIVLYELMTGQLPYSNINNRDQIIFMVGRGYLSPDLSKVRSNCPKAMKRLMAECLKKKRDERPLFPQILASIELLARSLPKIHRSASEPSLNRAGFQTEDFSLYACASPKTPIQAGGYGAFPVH
structure (smiles),measurement,setting,value
CNC(=O)c1cc(-c2cc(-c3cc(NC(=O)c4ccnc(C(C)(C)F)c4)ccc3Cl)ccn2)ccn1 [Example 485],IC50,[1],≤ 100 nM
same,IC50,[2],≤ 100 nM
same,IC50,[3],1000 to 10000 nM
same,IC50,[4],100 to 500 nM
Cc1ccc(NC(=O)c2ccnc(C(C)(C)F)c2)cc1-c1cnnc(-c2ccnc(C(N)=O)c2)c1 [Example 486],IC50,[1],≤ 100 nM
same,IC50,[2],≤ 100 nM
same,IC50,[3],1000 to 10000 nM
same,IC50,[4],500 to 1000 nM
CNC(=O)c1cc(-c2cc(-c3cc(NC(=O)c4ccnc(C5(F)CC5)c4)ccc3C)ccn2)ccn1 [Example 487],IC50,[1],≤ 100 nM
same,IC50,[2],≤ 100 nM
same,IC50,[3],1000 to 10000 nM
same,IC50,[4],≤ 100 nM
Cc1ccc(NC(=O)c2ccnc(C(C)(C)F)c2)cc1-c1cc(-c2ccnc(C(N)=O)c2)ncn1 [Example 488],IC50,[1],≤ 100 nM
same,IC50,[2],≤ 100 nM
same,IC50,[4],100 to 500 nM
[2H]C([2H])([2H])NC(=O)c1cc(-c2cc(-c3cc(NC(=O)c4ccnc(C(C)(C)F)c4)ccc3C)ccn2)ccn1 [Example 489],IC50,[1],≤ 100 nM
same,IC50,[2],≤ 100 nM
same,IC50,[3],1000 to 10000 nM
same,IC50,[4],≤ 100 nM
Cc1ccc(NC(=O)c2ccnc(C(C)(C)F)c2)cc1-c1cc(-c2ccnc(C(N)=O)c2)ncc1F [Example 490],IC50,[1],≤ 100 nM
same,IC50,[2],≤ 100 nM
same,IC50,[4],100 to 500 nM
CC(C)(F)c1cc(C(=O)Nc2ccc(F)c(-c3ccnc(-c4ccnc(C(N)=O)c4)c3)c2)ccn1 [Example 491],IC50,[1],≤ 100 nM
same,IC50,[2],≤ 100 nM
same,IC50,[4],100 to 500 nM
CNC(=O)c1cc(-c2cc(-c3cc(NC(=O)c4cnnc(C(C)(F)F)c4)ccc3C)ccn2)ccn1 [Example 492],IC50,[1],≤ 100 nM
same,IC50,[2],≤ 100 nM
same,IC50,[4],100 to 500 nM
[2H]C([2H])([2H])NC(=O)c1cc(-c2cc(-c3cc(NC(=O)c4ccnc(C(C)(C)F)c4)ccc3C)cc(C)n2)ccn1 [Example 493],IC50,[1],≤ 100 nM
same,IC50,[2],≤ 100 nM
same,IC50,[3],1000 to 10000 nM
same,IC50,[4],100 to 500 nM
CNC(=O)c1cc(-c2cc(-c3cc(NC(=O)c4ccnc(C(C)(C)F)n4)ccc3C)ccn2)ccn1 [Example 494],IC50,[1],≤ 100 nM
same,IC50,[2],≤ 100 nM
same,IC50,[3],1000 to 10000 nM
same,IC50,[4],1000 to 10000 nM
CNC(=O)c1cc(-c2cc(-c3cc(NC(=O)c4cnnc(C(C)(C)F)c4)ccc3C)ccn2)ccn1 [Example 495],IC50,[1],≤ 100 nM
same,IC50,[2],≤ 100 nM
same,IC50,[3],1000 to 10000 nM
same,IC50,[4],100 to 500 nM
CNC(=O)c1cc(-c2cc(-c3cc(NC(=O)c4ccnc(C5(F)CC5)c4)ccc3C)cc(C)n2)ccn1 [Example 496],IC50,[1],≤ 100 nM
same,IC50,[2],≤ 100 nM
same,IC50,[3],1000 to 10000 nM
same,IC50,[4],100 to 500 nM
CNC(=O)c1cc(-c2cc(-c3cc(NC(=O)c4ccnc(C(C)(C)F)c4)c(F)cc3C)ccn2)ccn1 [Example 497],IC50,[1],≤ 100 nM
same,IC50,[2],≤ 100 nM
same,IC50,[3],1000 to 10000 nM
same,IC50,[4],100 to 500 nM
[2H]C([2H])([2H])NC(=O)c1cc(-c2cc(-c3cc(NC(=O)c4ccnc(C5(F)CC5)c4)ccc3C)cc(C)n2)ccn1 [Example 498],IC50,[1],≤ 100 nM
same,IC50,[2],≤ 100 nM
same,IC50,[3],1000 to 10000 nM
same,IC50,[4],100 to 500 nM
CNC(=O)c1cc(-c2cc(-c3cc(NC(=O)c4ccnc(C(C)(C)F)c4)ncc3C)ccn2)ccn1 [Example 499],IC50,[1],≤ 100 nM
same,IC50,[2],≤ 100 nM
same,IC50,[3],1000 to 10000 nM
same,IC50,[4],100 to 500 nM
Cc1ccc(NC(=O)c2cn(C)nc2C(F)(F)F)cc1-c1cncc(-c2ccnc(NC(=O)C3CC3)c2)c1 [Example 500],IC50,[1],≤ 100 nM
same,IC50,[2],≤ 100 nM
same,IC50,[3],1000 to 10000 nM
same,IC50,[4],1000 to 10000 nM
Cc1ccc(NC(=O)c2ccc(C(F)(F)F)cc2)cc1-c1ccnc(-c2ccnc(NC(=O)C3CC3)c2)c1 [Example 501],IC50,[1],100 to 500 nM
same,IC50,[2],≤ 100 nM
same,IC50,[3],1000 to 10000 nM
same,IC50,[4],100 to 500 nM
Cc1ccc(NC(=O)c2cccc(C(F)(F)F)c2)cc1-c1ccnc(-c2ccnc(NC(=O)C3CC3)c2)c1 [Example 502],IC50,[1],≤ 100 nM
same,IC50,[2],≤ 100 nM
same,IC50,[3],500 to 1000 nM
same,IC50,[4],≤ 100 nM
Cc1ccc(NC(=O)c2cc(C(F)(F)F)ccc2F)cc1-c1ccnc(-c2ccnc(NC(=O)C3CC3)c2)c1 [Example 503],IC50,[1],≤ 100 nM
same,IC50,[2],≤ 100 nM
same,IC50,[3],1000 to 10000 nM
same,IC50,[4],100 to 500 nM
